Experimental data reported in patent EP2604624A1, “Bowman-Birk protease Inhibitor (BBI) binding peptides, and uses thereof in the separation, detection or purification of BBI” (University College Dublin National University Of Ireland, …, priority 2011, dated 2013).

Tests used:
Details in all cases: biotinylated peptide 0 to 200 µg.mL, streptavidin-HRP detection
BBI = system: BBI
Protocol: (§1) The C-terminus was elongated with a GGGS-CONH2 tail to mimic the GGGS-peptide spacer between the random peptide sequence and the phage protein pIII and to block the negative charge of the carboxyl terminus. […] All synthetic peptides were reconstituted in sterile deionised H2O to a concentration of 2 mg/mL. The ability of biotinylated synthetic peptides (from 0 to 200 µg.mL) to bind to the immobilized purified Bowman-Birk inhibitor, soy pulp and soy whey extracts (and BSA as a negative control) was analyzed in solid phase assays. In this case, the biotinylated synthetic peptides were incubated on BBI coated wells (100 µg.mL) and detected using a streptavidin-HRP conjugate (1:500). Binding and absorbance readings are finally carried out using the TMB substrate as described before.

soy pulp = system: soy pulp
Protocol: as §1

soy whey = system: soy whey
Protocol: as §1

GAMHLPWHMGTLGGGS-1,2-diaminoethane-biotin [peptide 1]
Dose-dependent binding: binding to BBI (BBI) | binding to soy pulp (soy pulp) | binding to soy whey (soy whey)
